Results taken from US20190076456A1, “COMPOSITIONS AND METHODS FOR LIVER DISEASES” (priority 2017, published 2019).
Read-outs that look alike come from different tables or passages of the source.

Experiments:
alcohol hangover = experiment: Nasal spray administration to a human subject with alcohol hangover; assay type: in vivo; details: 50 mg NAD+ per administration, three times in a day
Method: A subject, who is […] and suffers from alcohol hangover was administered by nasal spray a composition of invention (with a dosage of 50 mg NAD+ per administration) three times in a day.

[1] = cited from earlier work

NC(=O)c1ccc[n+]([C@@H]2O[C@H](COP(=O)([O-])OP(=O)(O)OC[C@H]3O[C@@H](n4cnc5c(N)ncnc54)[C@H](O)[C@@H]3O)[C@@H](O)[C@H]2O)c1 [NAD+, nicotinamide adenine dinucleotide]
symptoms of alcohol hangover (alcohol hangover): Significant improvement
stability of solution ([1]; 4° C. and neutral pH): stable for about a week
stability of solution ([1]; in acids or alkalis): decompose rapidly
